IC50 and inhibition data for eleven molecules are collected here from patent US20220267289A1, “SELECTIVE BCRP/ABCG2 TRANSPORTER INHIBITORS AS AGENTS TO ABOLISH RESISTANCE TO ANTI-CANCER AGENTS” (UNIVERSITE GRENOBLE ALPES, priority 2019, published 2022).

Structures are written as SMILES. Like-named read-outs stand apart in the source and are kept apart here.

The target of one data set is T1, BCRP/ABCG2 (Homo sapiens, UniProt Q9UNQ0).
T1 sequence (Q9UNQ0 1-655): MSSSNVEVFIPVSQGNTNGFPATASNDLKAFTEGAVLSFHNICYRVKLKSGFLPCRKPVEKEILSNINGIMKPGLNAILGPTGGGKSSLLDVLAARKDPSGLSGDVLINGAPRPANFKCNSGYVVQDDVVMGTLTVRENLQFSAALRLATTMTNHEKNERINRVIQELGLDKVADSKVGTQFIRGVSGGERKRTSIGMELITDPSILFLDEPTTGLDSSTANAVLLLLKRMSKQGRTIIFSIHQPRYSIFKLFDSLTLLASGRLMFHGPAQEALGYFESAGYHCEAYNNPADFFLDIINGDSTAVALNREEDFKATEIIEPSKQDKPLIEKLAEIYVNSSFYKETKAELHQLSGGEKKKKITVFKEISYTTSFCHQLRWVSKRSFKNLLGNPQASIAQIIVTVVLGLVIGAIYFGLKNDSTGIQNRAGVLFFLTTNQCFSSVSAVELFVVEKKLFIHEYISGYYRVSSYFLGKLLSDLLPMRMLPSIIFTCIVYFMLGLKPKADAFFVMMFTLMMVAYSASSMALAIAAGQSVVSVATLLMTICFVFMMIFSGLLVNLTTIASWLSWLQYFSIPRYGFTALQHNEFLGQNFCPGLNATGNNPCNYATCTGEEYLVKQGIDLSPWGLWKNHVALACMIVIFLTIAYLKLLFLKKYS
Put plainly: BCRP-mediated mitoxantrone efflux inhibition, ABCG2-transfected HEK293 cells, flow cytometry. For orientation: Flow cytometry measures light scatter and fluorescence of single cells or particles in a stream.

The target in a further data set is T2, P-gp (ABCB1) (Homo sapiens, UniProt P08183).
T2 construct: expressed in transfected cells; host or cells: NIH/3T3
T2 sequence (P08183 whole entry): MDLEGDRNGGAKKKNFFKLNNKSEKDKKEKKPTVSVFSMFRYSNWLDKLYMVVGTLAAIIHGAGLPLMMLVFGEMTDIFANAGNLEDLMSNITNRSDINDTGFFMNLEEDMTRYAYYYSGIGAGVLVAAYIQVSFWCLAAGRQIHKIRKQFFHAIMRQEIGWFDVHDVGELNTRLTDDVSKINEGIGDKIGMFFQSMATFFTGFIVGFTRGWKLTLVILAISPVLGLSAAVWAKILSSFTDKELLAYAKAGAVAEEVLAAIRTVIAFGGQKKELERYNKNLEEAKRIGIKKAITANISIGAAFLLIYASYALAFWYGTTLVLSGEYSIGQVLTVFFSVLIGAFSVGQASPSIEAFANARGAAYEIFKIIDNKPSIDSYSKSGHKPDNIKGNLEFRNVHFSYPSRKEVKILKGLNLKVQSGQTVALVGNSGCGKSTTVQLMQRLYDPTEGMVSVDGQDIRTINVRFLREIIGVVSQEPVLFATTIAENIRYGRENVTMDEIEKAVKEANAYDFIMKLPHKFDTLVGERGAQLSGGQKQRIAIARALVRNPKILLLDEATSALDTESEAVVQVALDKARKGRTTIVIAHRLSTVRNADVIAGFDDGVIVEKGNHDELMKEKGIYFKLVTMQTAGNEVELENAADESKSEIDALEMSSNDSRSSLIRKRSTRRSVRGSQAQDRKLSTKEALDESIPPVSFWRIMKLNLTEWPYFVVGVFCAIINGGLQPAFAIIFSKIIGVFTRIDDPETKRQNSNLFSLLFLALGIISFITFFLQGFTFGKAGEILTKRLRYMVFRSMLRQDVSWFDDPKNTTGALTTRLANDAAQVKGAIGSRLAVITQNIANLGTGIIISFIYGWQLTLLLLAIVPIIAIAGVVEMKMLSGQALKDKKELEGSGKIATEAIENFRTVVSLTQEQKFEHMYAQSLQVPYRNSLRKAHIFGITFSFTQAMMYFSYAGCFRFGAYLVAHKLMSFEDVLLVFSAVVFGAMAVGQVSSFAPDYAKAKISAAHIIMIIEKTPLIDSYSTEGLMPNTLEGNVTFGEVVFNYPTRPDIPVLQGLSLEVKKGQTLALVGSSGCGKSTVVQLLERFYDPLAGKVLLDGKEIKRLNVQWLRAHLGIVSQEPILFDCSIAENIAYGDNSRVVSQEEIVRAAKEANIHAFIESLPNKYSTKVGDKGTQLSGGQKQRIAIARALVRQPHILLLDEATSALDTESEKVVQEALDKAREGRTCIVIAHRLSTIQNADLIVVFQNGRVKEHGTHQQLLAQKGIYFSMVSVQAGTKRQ
In words: P-gp-mediated rhodamine 123 efflux inhibition (selectivity assay), ABCB1-transfected NIH/3T3 cells. The format is cell-based. The settings on record: probe rhodamine 123 (R123), 0.5 μM R123; for inhibition at 30 min, 1 μM: [Inhibitor] 1 μM; for inhibition at 30 min, 10 μM: [Inhibitor] 10 μM. On the procedure:
(§1) The tests were performed in triplicate.

The target of a further data set is T3, MRP1 (ABCC1) (Homo sapiens, UniProt P33527).
T3 construct: expressed in transfected cells; host or cells: Flp-In 293
T3 sequence (P33527 whole entry): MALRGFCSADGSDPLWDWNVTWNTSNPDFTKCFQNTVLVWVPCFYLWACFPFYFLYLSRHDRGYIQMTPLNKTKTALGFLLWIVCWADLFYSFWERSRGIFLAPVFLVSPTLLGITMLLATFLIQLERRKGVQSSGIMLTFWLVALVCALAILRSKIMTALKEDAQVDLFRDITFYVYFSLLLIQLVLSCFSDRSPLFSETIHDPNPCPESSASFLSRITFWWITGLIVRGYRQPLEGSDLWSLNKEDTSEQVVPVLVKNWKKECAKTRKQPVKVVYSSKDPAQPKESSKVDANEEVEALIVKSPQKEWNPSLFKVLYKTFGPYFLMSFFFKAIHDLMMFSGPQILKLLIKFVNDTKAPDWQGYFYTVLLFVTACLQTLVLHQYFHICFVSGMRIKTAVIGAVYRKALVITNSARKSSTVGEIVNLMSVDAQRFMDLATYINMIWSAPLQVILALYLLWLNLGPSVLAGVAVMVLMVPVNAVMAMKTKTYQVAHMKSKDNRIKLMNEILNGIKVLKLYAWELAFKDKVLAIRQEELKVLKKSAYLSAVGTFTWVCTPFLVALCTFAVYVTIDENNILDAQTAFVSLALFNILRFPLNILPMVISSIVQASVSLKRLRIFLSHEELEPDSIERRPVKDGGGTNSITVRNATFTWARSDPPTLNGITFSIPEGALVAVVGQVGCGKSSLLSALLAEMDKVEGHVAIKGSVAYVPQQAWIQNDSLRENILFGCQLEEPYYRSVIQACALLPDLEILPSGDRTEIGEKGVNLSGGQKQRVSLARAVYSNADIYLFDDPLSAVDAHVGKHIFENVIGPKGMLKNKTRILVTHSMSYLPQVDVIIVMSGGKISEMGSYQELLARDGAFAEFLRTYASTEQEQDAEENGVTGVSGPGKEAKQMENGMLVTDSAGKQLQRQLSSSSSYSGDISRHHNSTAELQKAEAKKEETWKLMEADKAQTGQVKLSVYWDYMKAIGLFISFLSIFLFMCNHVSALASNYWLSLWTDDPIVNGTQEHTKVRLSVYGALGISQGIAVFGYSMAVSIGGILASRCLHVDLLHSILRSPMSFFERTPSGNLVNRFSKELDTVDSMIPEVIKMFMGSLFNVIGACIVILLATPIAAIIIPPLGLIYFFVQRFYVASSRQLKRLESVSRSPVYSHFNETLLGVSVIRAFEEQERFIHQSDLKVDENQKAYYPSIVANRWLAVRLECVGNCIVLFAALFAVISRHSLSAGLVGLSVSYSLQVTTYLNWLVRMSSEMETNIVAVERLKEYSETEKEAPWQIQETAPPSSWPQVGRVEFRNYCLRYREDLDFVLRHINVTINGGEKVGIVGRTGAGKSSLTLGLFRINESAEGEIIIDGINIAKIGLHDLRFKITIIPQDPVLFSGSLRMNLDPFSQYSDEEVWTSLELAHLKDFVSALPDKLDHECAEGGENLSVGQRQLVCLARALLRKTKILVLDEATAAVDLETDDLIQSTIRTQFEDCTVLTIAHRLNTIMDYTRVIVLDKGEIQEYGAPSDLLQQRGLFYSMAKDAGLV
In words: MRP1-mediated calcein-AM efflux inhibition (selectivity assay), ABCC1-transfected Flp-In 293 cells. The class given is cell-based. The note with it: probe calcein-AM (cAM), 0.2 μM cAM; for inhibition at 30 min, 1 μM: [Inhibitor] 1 μM; for inhibition at 30 min, 10 μM: [Inhibitor] 10 μM. The procedure:
as §1

[1] abbreviates: human, probe mitoxantrone (MX), 4 μM.

Procedure for BCRP/ABCG2: The cells were seeded in 96-well plates at a density of 5×10^4 cells/well in 200 μL of medium and incubated overnight. Then the growth medium was changed to fresh medium containing the compounds and in the presence of 4 μM MX as a fluorescent probe for BCRP-mediated efflux at a final concentration of 0.5% (v/v) DMSO. After 30 min incubation at 37° C., the medium was removed, and the cells were washed with 100 μL of Dulbecco's phosphate-buffered saline (DPBS) followed by dissociation of the cells for 5 min at 37° C. mediated by 25 μL trypsin. Finally, trypsin was neutralised with 175 μL of DPBS ice-cold with 2% bovine serum albumin (BSA) and the cells were carefully resuspended. As a selectivity assay, the same experiment was performed for P-gp and MRP1-mediated efflux with 0.5 μM R123 or 0.2 μM cAM as respective fluorescent substrates instead of MX.
Intracellular fluorescence was measured with a MacsQUANT VRB Analyzer flow cytometer (Miltenyi Biotec) with at least 5000 events recorded. While MX was excited at 635 nm and the fluorescence emission recorded in a 655-730 nm window, R123 and cAM were excited at 488 nm and recorded in a 525/50 nm filter. The compound inhibition yield was estimated by the following equation:
where G2FA is the fluorescence emission (a.u.) of accumulated fluorophore in cells expressing the efflux pump incubated with a fluorescent substrate and the test compound. G2FBG is the resulting background fluorescence emission (a.u.) in cells transfected with ABCG2 (no substrate or test compound). G2S is the fluorescence emission (a.u.) of accumulated fluorophore in cells expressing the efflux pump incubated with substrate only. HEKFA is the fluorescence emission (a.u.) of accumulated fluorophore in control cells incubated with the substrate and test compound. HEKFBG is the resulting background fluorescence emission (a.u.) in control cells (no substrate or test compound). All values are given as the geometric mean fluorescence emission (a.u.) in a 655-730 nm filter (635 nm excitation) measured over 5000 events. The tests were performed in triplicate.

In the case of `CCC(C)[C@H](NC(=O)c1cc(=O)c2c(OCc3ccc(Br)cc3)cccc2o1)C(=O)OC` (some centres unmarked) [5b (series 1)], at BCRP/ABCG2, the IC50 (as a rule, the midpoint of a concentration-inhibition curve) is 590 ± 80 nM. In addition, the inhibition (in general, the drop in the measured response relative to a control, in per cent) at 30 min, 10 μM against BCRP/ABCG2 (setting [1]) amounted to 115 ± 14%.
As to `COC(=O)[C@H](Cc1ccccc1)NC(=O)c1cc(=O)c2c(OCc3ccc(Br)cc3)cccc2o1` [5f (series 1), methyl (5-((4-bromobenzyl)oxy)-4-oxo-4H-chromene-2-carbonylamino)-L-phenylalaninate], on P-gp (ABCB1), the inhibition at 30 min, 1 μM stood at 6.4 ± 1.5% and the inhibition at 30 min, 10 μM amounted to 6.8 ± 1.4%. For the same molecule, at MRP1 (ABCC1), the inhibition at 30 min, 1 μM was 23% and the inhibition at 30 min, 10 μM is 19%.
For the molecule `CC[C@@H](C)[C@H](NC(=O)c1cc(=O)c2c(OCc3ccc(Br)cc3)cccc2o1)C(=O)O` [6b (series 1), (5-((4-bromobenzyl)oxy)-4-oxo-4H-chromene-2-carbonyl)-L-alloisoleucine], at P-gp (ABCB1), the inhibition at 30 min, 1 μM worked out at 7.7 ± 1.9% and the inhibition at 30 min, 10 μM was determined as 7.1 ± 0.6%. For the same molecule, at MRP1 (ABCC1), the inhibition at 30 min, 1 μM is 21.9 ± 4.6% and the inhibition at 30 min, 10 μM was 20.6 ± 1.2%.
Regarding `O=C(N[C@@H](Cc1ccccc1)C(=O)O)c1cc(=O)c2c(OCc3ccc(Br)cc3)cccc2o1` [6d (series 1), (5-((4-bromobenzyl)oxy)-4-oxo-4H-chromene-2-carbonylamino)-L-phenylalanine], at BCRP/ABCG2 (setting [1]), the inhibition at 30 min, 1 μM was found to be 4 ± 0.7% and the inhibition at 30 min, 10 μM worked out at 6.5%.
Take `CC[C@@H](C)[C@H](NC(=O)c1cc(=O)c2c(OCc3ccccc3Br)cccc2o1)C(=O)N[C@H](C(=O)OC)C(C)C` [7a (series 2)]: on P-gp (ABCB1), the inhibition at 30 min, 1 μM stood at 0.1% and the inhibition at 30 min, 10 μM was found to be 0.2%. For the same molecule, at MRP1 (ABCC1), the inhibition at 30 min, 1 μM is 11.1 ± 0.8% and the inhibition at 30 min, 10 μM was 10.8 ± 2.8%. In addition, half-maximal inhibition at BCRP/ABCG2 (IC50) was put at 70 ± 10 nM. In addition, on BCRP/ABCG2 (setting [1]), the inhibition at 30 min, 1 µM came to 84.8 ± 7.4%.
In turn, `COc1ccc2[nH]cc(CCNC(=O)c3cc(=O)c4c(OCc5ccc(Br)cc5Br)cccc4o3)c2c1` [7a (series 3), 5-((2,4-dibromobenzyl)oxy)-N-(2-(5-methoxy-1H-indol-3-yl)ethyl)-4-oxo-4H-chromene-2-carboxamide] showed an IC50 at BCRP/ABCG2 of 50 ± 10 nM.
`CC[C@@H](C)[C@H](NC(=O)c1cc(=O)c2c(OCc3ccccc3Br)cccc2o1)C(=O)N[C@@H](CC(C)C)C(=O)OC` [7b (series 2)]: on P-gp (ABCB1), the inhibition at 30 min, 1 μM was found to be 1.7 ± 2.4% and the inhibition at 30 min, 10 μM worked out at 2.4 ± 0.5%. In addition, the inhibition at 30 min, 1 μM at MRP1 (ABCC1) was 10.3 ± 0.7%. Besides, the IC50 on BCRP/ABCG2 came out at 70 ± 10 nM. Besides, the inhibition at 30 min, 1 µM against BCRP/ABCG2 (setting [1]) was 82.5 ± 9.7%.
On BCRP/ABCG2 (ABCG2 inhibition, Table 2), `COc1ccc2[nH]cc(CCNC(=O)c3cc(=O)c4c(OCc5cc(Br)cc(Br)c5)cccc4o3)c2c1` [7b (series 3), ((3,5-dibromobenzyl)oxy)-N-(2-(5-methoxy-1H-indol-3-yl)ethyl)-4-oxo-4H-chromene-2-carboxamide] showed an IC50 of 100 ± 10 nM.
In the case of `CC[C@@H](C)[C@H](NC(=O)c1cc(=O)c2c(OCc3ccc(Br)cc3)cccc2o1)C(=O)N[C@H](C(=O)OC)C(C)C` [7c (series 2)], at P-gp (ABCB1), the inhibition at 30 min, 1 μM is 2.4 ± 2.1% and the inhibition at 30 min, 10 μM was found to be 10.6 ± 0.3%. In addition, on MRP1 (ABCC1), the inhibition at 30 min, 1 μM was 11.5 ± 0.4% and the inhibition at 30 min, 10 μM is 15.3 ± 1.5%. Also, at BCRP/ABCG2, the IC50 is 250 ± 100 nM. The inhibition at 30 min, 1 µM at BCRP/ABCG2 (setting [1]) turned out to be 72.4 ± 7.1%.
For the molecule `CC[C@@H](C)[C@H](NC(=O)c1cc(=O)c2c(OCc3ccc(Br)cc3)cccc2o1)C(=O)N[C@@H](CC(C)C)C(=O)OC` [7d (series 2), methyl (5-((4-bromobenzyl)oxy)-4-oxo-4H-chromene-2-carbonylamino)-L-alloisoleucyl-L-leucinate], on P-gp (ABCB1), the inhibition at 30 min, 1 μM was found to be 3.6 ± 0.2% and the inhibition at 30 min, 10 μM amounted to 5.9 ± 0.1%. At MRP1 (ABCC1), the inhibition at 30 min, 1 μM is 10.9 ± 1.4% and the inhibition at 30 min, 10 μM is 14.7 ± 1%. Besides, at BCRP/ABCG2, half-maximal inhibition (IC50) required 110 ± 30 nM. The inhibition at 30 min, 1 µM at BCRP/ABCG2 (setting [1]) was 52.3 ± 5.1%.
The molecule `COc1ccc2[nH]cc(CCNC(=O)c3cc(=O)c4c(OCc5ccc(Br)cc5)cccc4o3)c2c1` [MBL-II-141, reference compound] came in with an IC50 at BCRP/ABCG2 (ABCG2 inhibition, Table 2) of 130 ± 90 nM.
